From patent US20230391841A1, “MACROCYCLIC PEPTIDES” (Herantis Pharma OYJ, priority 2019, published 2023)
Bridge positions count the residues as written; N and C are the ends. Peptide text beside a SMILES is read from it.

Key:
[1] = system: human hepatocytes; experiment: In vitro metabolic stability in human hepatocytes; type: in vitro ADME; settings: 1 μM, 37° C., up to 60 min
Protocol: The linear or macrocyclic compounds 1-8, 11-14 and 23-26 (SEQ ID NOs: 1-8, 11-14 and 23-26) were incubated in concentration 1 μM with pooled cryopreserved human hepatocytes (mixed gender; 400 pl, 1.0 million viable cells/ml) for different time points (0, 20, 40 or 60 min) at 37° C. The cell density and viability were determined by trypan blue is exclusion method. The incubation was terminated by acetonitrile. The collected samples were centrifuged for 20 min at 2272×g and analyzed. The samples were analyzed by UPLC/PDA with high resolution mass spectrometry (QE-Orbitrap-MS on DDI mode) to monitor disappearance of the compound. Verapramil 1 μM was used as a disappearance rate control. The analytical method was optimized by using the parent compounds for optimum chromatographic properties (peak shape and retention) and mass spectrometric ionization. The Ion chromatograms were extracted from the total ion chromatograms using calculated monoisotopic accurate masses with 5 mDa window. Disappearance was based on LC/MS peak areas, marking 0 min as 100%. The first-order rate constants k (min-1) of the metabolism were obtained from the slope of time versus logarithm (% of remaining compound) plot using Excel software. The in vitro half-life (t1/2) of study compound is defined as: t1/2In2/k. Calculated half-life is based on compound disappearance in human liver hepatocytes.

[2] = system: rat hepatocytes; experiment: In vitro metabolic stability in rat hepatocytes; type: in vitro ADME; settings: 1 μM, 37° C., up to 60 min
Protocol: The linear or macrocyclic compounds 1-14 and 23-26 (SEQ ID NOs: […]) were incubated in concentration 1 μM with pooled cryopreserved rat hepatocytes (Sprague-Dawley, male; 400 pl, 1.0 million viable cells/ml for compounds 1-8, 11-12 and 23-26 or 100 μl, 0.1 million viable cells/ml for compounds 9-10 and 13-14) for different time points (0, 10, 20, 40 or 60 min) at 37° C. The cell density and viability were determined by trypan blue exclusion method. The incubation was terminated by acetonitrile. The collected samples were centrifuged for 20 min at 2272×g and analyzed. The samples were analyzed is by UHPLC/PDA with high resolution mass spectrometry (QE-Orbitrap-MS on DDI mode) (compounds 1-8, 11-12 and 23-26) or HHPLC-ToF mass spectrometry (for compounds 9-and 13-14) to monitor disappearance of the compound. Verapramil 1 μM was used as a disappearance rate control. The analytical method was optimized by using the parent compounds for optimum chromatographic properties (peak shape and retention) and mass spectrometric ionization. The Ion chromatograms were extracted from the total ion chromatograms using calculated monoisotopic accurate masses with 5 mDa window. Disappearance was based on LC/MS peak areas, marking 0 min as 100%. The first-order rate constants k (min-1) of the metabolism were obtained from the slope of time versus logarithm (% of remaining compound) plot using Excel software. The in vitro half-life (t1/2) of study compound is defined as: t1/2In2/k. Calculated half-life is based on compound disappearance in rat liver hepatocytes.

CC[C@H](C)[C@@H]1NC(=O)[C@H](CCC(N)=O)NC(=O)[C@H](CCCCN)NC(=O)[C@H](CC(C)C)NC(=O)[C@H](CCC(=O)O)NC(=O)[C@H](C)NC(=O)[C@H](C(C)C)NC(=O)[C@H](CCCNC(=N)N)NC(=O)[C@H](CCSC)NC(=O)[C@H](CCCCN)NC(=O)[C@H](CCCNC(=N)N)NC(=O)[C@H](CC(C)C)NC(=O)[C@H](CC(=O)O)NC(=O)[C@H](C(C)C)NC(=O)[C@H](CCC(=O)O)NC(=O)[C@H](C)NC(=O)[C@@H]2CSSC[C@H](NC(=O)[C@H](CCC(=O)O)NC(=O)[C@H](CCC(=O)O)NC(=O)CNC(=O)[C@H](Cc3c[nH]c4ccccc34)NC(=O)[C@H](CO)NC(=O)[C@H](Cc3c[nH]cn3)NC(=O)[C@H](CC(C)C)NC1=O)C(=O)N[C@@H](CCCNC(=N)N)C(=O)N[C@@H](C)C(=O)N2 [Compound 2] (cyclo(ACAEVDLRKMRVAELKQILHSWGEECR); disulfide 2-26)
stability in human hepatocytes as compared to linear counterpart [1]: significantly improved stability
stability in rat hepatocytes as compared to linear counterpart [2]: significantly improved stability

C[C@@H]1NC(=O)[C@@H]2CSSC[C@H](NC(=O)[C@H]([C@@H](C)O)NC(=O)[C@H](CCC(=O)O)NC(=O)CNC(=O)[C@H](Cc3c[nH]c4ccccc34)NC(=O)[C@H](CO)NC(=O)[C@H](CCCCN)NC(=O)[C@H](CCC(=O)O)NC1=O)C(=O)N[C@@H](CCCCN)C(=O)NCC(=O)NCC(=O)N2 [Compound 26, WGETCKGGCAEKS] (cyclo(AEKSWGETCKGGC); disulfide 9-13)
stability in human hepatocytes as compared to linear counterpart [1]: significantly improved stability
stability in rat hepatocytes as compared to linear counterpart [2]: significantly improved stability

C[C@@H]1NC(=O)CNC(=O)[C@H](CCCNC(=N)N)NC(=O)[C@@H]2CSSC[C@H](NC1=O)C(=O)N[C@@H](C)C(=O)N[C@@H](CCC(=O)O)C(=O)N[C@@H](CCCCN)C(=O)N[C@@H]([C@@H](C)O)C(=O)N[C@@H](Cc1c[nH]c3ccccc13)C(=O)NCC(=O)N[C@@H](CCC(=O)O)C(=O)N[C@@H](CCC(=O)O)C(=O)N2 [Compound 24, WGEECRGACAEKT] (cyclo(ACAEKTWGEECRG); disulfide 2-11)
stability in human hepatocytes as compared to linear counterpart [1]: significantly improved stability
stability in rat hepatocytes as compared to linear counterpart [2]: significantly improved stability

CC[C@H](C)[C@@H]1NC(=O)[C@H](CCC(N)=O)NC(=O)[C@H](CCCCN)NC(=O)[C@H](CC(C)C)NC(=O)[C@H](CCC(=O)O)NC(=O)[C@H](C)NC(=O)[C@H](C(C)C)NC(=O)[C@H](CCCNC(=N)N)NC(=O)[C@H](CCSC)NC(=O)[C@H](CCCCN)NC(=O)[C@H](CCC(=O)O)NC(=O)[C@H](C)NC(=O)[C@@H]2CSSC[C@H](NC(=O)[C@H](CCC(=O)O)NC(=O)[C@H](CCC(=O)O)NC(=O)CNC(=O)[C@H](Cc3c[nH]c4ccccc34)NC(=O)[C@H](CO)NC(=O)[C@H](Cc3c[nH]cn3)NC(=O)[C@H](CC(C)C)NC1=O)C(=O)N[C@@H](CCCNC(=N)N)C(=O)N[C@@H](C)C(=O)N2 [Compound 6] (cyclo(ACAEKMRVAELKQILHSWGEECR); disulfide 2-22)
stability in human hepatocytes as compared to linear counterpart [1]: significantly improved stability
stability in rat hepatocytes as compared to linear counterpart [2]: significantly improved stability

C[C@@H]1NC(=O)[C@@H]2CSSC[C@H](NC(=O)[C@H]([C@@H](C)O)NC(=O)[C@H](CCC(=O)O)NC(=O)CNC(=O)[C@H](Cc3c[nH]c4ccccc34)NC(=O)[C@H](CO)NC(=O)[C@H](CCCCN)NC(=O)[C@H](CCC(=O)O)NC1=O)C(=O)N[C@@H](CCCCN)C(=O)NCC(=O)N2 [Compound 14, WGETCKGCAEKS] (cyclo(AEKSWGETCKGC); disulfide 9-12)
stability in human hepatocytes as compared to linear counterpart [1]: significantly improved stability
stability in rat hepatocytes as compared to linear counterpart [2]: significantly improved stability

CC[C@H](C)[C@@H]1NC(=O)[C@H](CCCCN)NC(=O)[C@H](CCCCN)NC(=O)[C@H](CC(C)C)NC(=O)[C@H](CCC(=O)O)NC(=O)[C@H](CCCCN)NC(=O)[C@H](C(C)C)NC(=O)[C@H](CCCNC(=N)N)NC(=O)[C@H](CC(C)C)NC(=O)[C@H](CCCCN)NC(=O)[C@H](CCC(=O)O)NC(=O)[C@H](C)NC(=O)[C@@H]2CSSC[C@H](NC(=O)[C@H]([C@@H](C)O)NC(=O)[C@H](CCC(=O)O)NC(=O)CNC(=O)[C@H](Cc3c[nH]c4ccccc34)NC(=O)[C@H](CC(=O)O)NC(=O)[C@H](CC(=O)O)NC(=O)[C@H](CC(C)C)NC1=O)C(=O)N[C@@H](CCCCN)C(=O)NCC(=O)N2 [Compound 8] (cyclo(AEKLRVKELKKILDDWGETCKGC); disulfide 20-23)
stability in rat hepatocytes as compared to linear counterpart [2]: significantly improved stability

CC[C@H](C)[C@@H]1NC(=O)[C@H](CO)NC(=O)[C@H](CCCCN)NC(=O)[C@H](CCC(=O)O)NC(=O)[C@H](C)NC(=O)[C@@H]2CSSC[C@H](NC(=O)[C@H]([C@@H](C)O)NC(=O)[C@H](CCC(=O)O)NC(=O)CNC(=O)[C@H](Cc3c[nH]c4ccccc34)NC(=O)[C@H](CC(=O)O)NC(=O)[C@H](CC(=O)O)NC(=O)[C@H](CC(C)C)NC1=O)C(=O)N[C@@H](CCCCN)C(=O)NCC(=O)N2 [Compound 10, KSILDDWGETCKGCAE] (cyclo(AEKSILDDWGETCKGC); disulfide 13-16)
stability in rat hepatocytes as compared to linear counterpart [2]: significantly improved stability

C[C@@H]1NC(=O)[C@@H]2CSSC[C@H](NC(=O)[C@H](CCC(=O)O)NC(=O)[C@H](CCC(=O)O)NC(=O)CNC(=O)[C@H](Cc3c[nH]c4ccccc34)NC(=O)[C@H]([C@@H](C)O)NC(=O)[C@H](CCCCN)NC(=O)[C@H](CCC(=O)O)NC1=O)C(=O)N[C@@H](CCCNC(=N)N)C(=O)N[C@@H](C)C(=O)N2 [Compound 12, WGEECRACAEKT] (cyclo(ACAEKTWGEECR); disulfide 2-11)
stability in human hepatocytes as compared to linear counterpart [1]: significantly improved stability
stability in rat hepatocytes as compared to linear counterpart [2]: significantly improved stability
